In brackets after ≈: the same amount, converted by molar mass.
How the values were obtained:
Experiment in all cases: in vitro antibacterial evaluation, MIC by broth dilution
Format in all cases: cell-based
Escherichia coli = conditions: 18 hours at 35° C.
In short: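 MIC is the lowest antibiotic concentration (tested 64-0.06 μg/mL) preventing growth of a 5×10^5 CFU/mL inoculum. Determined by broth dilution in Mueller-Hinton II medium following NCCLS standard M7-A2.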

Streptococcus sp. = conditions: broth dilution, 18 hours at 35° C.
In short: (§1)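 MIC, the lowest antibiotic concentration preventing growth, was read across 64-0.06 μg/mL with 5×10^5 CFU/mL inoculum. Method followed NCCLS M7-A2 broth dilution using Mueller-Hinton II; Gram-positive strains covered recent methicillin-, penicillin- and/or vancomycin-resistant clinical isolates.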

Staphylococcus sp. = conditions: broth dilution, 18 hours at 35° C.; for MIC Staphylococcus aureus (ATCC 29213): strain ATCC 29213; for MIC Staphylococcus aureus (GC 1131): strain GC 1131; for MIC Staphylococcus aureus (GC 3051): strain GC 3051; for MIC Staphylococcus aureus (GC 3053): strain GC 3053; for MIC Staphylococcus aureus (GC 4541): strain GC 4541; for MIC Staphylococcus aureus (GC 4542): strain GC 4542; for MIC Staphylococcus aureus-SMITH (GC 4543): strain GC 4543; for MIC Staphylococcus aureus (GC 4544): strain GC 4544; for MIC Staphylococcus aureus (GC 4545): strain GC 4545; for MIC Staphylococcus haemolyticus (GC 4546): strain GC 4546; for MIC Coagulase Negative Staphylococcus (GC 4547): strain GC 4547; for MIC Coagulase Negative Staphylococcus (GC 4548): strain GC 4548; for MIC Coagulase Negative Staphylococcus (GC 4549): strain GC 4549; for MIC Coagulase Negative Staphylococcus (GC 4551): strain GC 4551
In short: as §1

Enterococcus sp. = conditions: broth dilution, 18 hours at 35° C.
In short: as §1

[1] = Enterococcus faecalis (ATCC 29212)
[2] = Enterococcus faecalis (GC 4552)
[3] = Enterococcus faecalis (GC 4553)
[4] = Enterococcus faecalis (GC 4554)
[5] = Enterococcus faecalis (GC 6189)

Compound: CC(c1ccccc1)C1NC(=O)CNC(=O)C(CO)NC(=O)C(CC2CN(Cc3ccccc3)C(=NCc3ccccc3)N2C2OC(CO)C(O)C(O)C2O)NC(=O)C(CC2CN(Cc3ccccc3)C(=NCc3ccccc3)N2Cc2ccccc2)NC(=O)C(Cc2ccc(OC3OC(CO)C(OC4OC(CO)C(O)C(O)C4O)C(O)C3O)cc2)NC1=O (stereo not drawn) [Example 73, Cyclo[3-[1,3-benzyl-2-(benzylimino)imidazolidin-4-yl]alanyl-3-[1-benzyl-2-(benzylimino)-3-hexopyranosylimidazolidin-4-yl]alanylserylglycyl-β-methylphenylalanyl-O-(4-O-hexopyranosylhexopyranosyl)tyrosyl]]
- MIC Escherichia coli (ATCC 25922) (Escherichia coli): >128 µg/mL
- MIC Escherichia coli (GC 4559) (Escherichia coli): >128 µg/mL
- MIC Escherichia coli (GC 4560) (Escherichia coli): 16 µg/mL (≈ 9.34 µM)
- MIC Streptococcus agalactiae (GC 4564) (Streptococcus sp.): >128 µg/mL
- MIC Streptococcus pneumoniae (ATCC 6301) (Streptococcus sp.): 128 µg/mL (≈ 74.7 µM)
- MIC Streptococcus pneumoniae (GC 1894) (Streptococcus sp.): 64 µg/mL (≈ 37.3 µM)
- MIC Streptococcus pneumoniae (GC 4565) (Streptococcus sp.): 128 µg/mL (≈ 74.7 µM)
- MIC Streptococcus pyogenes (GC 4563) (Streptococcus sp.): >128 µg/mL
- MIC Streptococcus pneumoniae (ATCC 6301) (Streptococcus sp.; strain ATCC 6301): 128 µg/mL (≈ 74.7 µM)
- MIC Streptococcus pneumoniae (GC 1894) (Streptococcus sp.; strain GC 1894): 64 µg/mL (≈ 37.3 µM)
- MIC Streptococcus pyogenes (GC 4563) (Streptococcus sp.; strain GC 4563): >128 µg/mL
- MIC Streptococcus agalactiae (GC 4564) (Streptococcus sp.; strain GC 4564): >128 µg/mL
- MIC Streptococcus pneumoniae (GC 4565) (Streptococcus sp.; strain GC 4565): 128 µg/mL (≈ 74.7 µM)
- MIC Staphylococcus aureus (ATCC 29213) (Staphylococcus sp.): >128 µg/mL
- MIC Staphylococcus aureus (GC 1131) (Staphylococcus sp.): >128 µg/mL
- MIC Staphylococcus aureus (GC 3051) (Staphylococcus sp.): >128 µg/mL
- MIC Staphylococcus aureus (GC 3053) (Staphylococcus sp.): >128 µg/mL
- MIC Staphylococcus aureus (GC 4541) (Staphylococcus sp.): >128 µg/mL
- MIC Staphylococcus aureus (GC 4542) (Staphylococcus sp.): >128 µg/mL
- MIC Staphylococcus aureus-SMITH (GC 4543) (Staphylococcus sp.): >128 µg/mL
- MIC Staphylococcus aureus (GC 4544) (Staphylococcus sp.): >128 µg/mL
- MIC Staphylococcus aureus (GC 4545) (Staphylococcus sp.): >128 µg/mL
- MIC Staphylococcus haemolyticus (GC 4546) (Staphylococcus sp.): >128 µg/mL
- MIC Coagulase Negative Staphylococcus (GC 4547) (Staphylococcus sp.): >128 µg/mL
- MIC Coagulase Negative Staphylococcus (GC 4548) (Staphylococcus sp.): >128 µg/mL
- MIC Coagulase Negative Staphylococcus (GC 4549) (Staphylococcus sp.): >128 µg/mL
- MIC Coagulase Negative Staphylococcus (GC 4551) (Staphylococcus sp.): >128 µg/mL
- MIC Coagulase Negative Staphylococcus (GC 6257) (Staphylococcus sp.; strain GC 6257): >128 µg/mL
- MIC Enterococcus avium (GC 4558) (Enterococcus sp.; Enterococcus avium (GC 4558)): 128 µg/mL (≈ 74.7 µM)
- MIC Enterococcus faecalis (ATCC 29212) (Enterococcus sp.; [1]): >128 µg/mL
- MIC Enterococcus faecalis (GC 4552) (Enterococcus sp.; [2]): >128 µg/mL
- MIC Enterococcus faecalis (GC 4553) (Enterococcus sp.; [3]): >128 µg/mL
- MIC Enterococcus faecalis (GC 4554) (Enterococcus sp.; [4]): >128 µg/mL
- MIC Enterococcus faecalis (GC 6189) (Enterococcus sp.; [5]): >128 µg/mL
- MIC Enterococcus faecium (GC 2243) (Enterococcus sp.; Enterococcus faecium (GC 2243)): >128 µg/mL
- MIC Enterococcus faecium (GC 4556) (Enterococcus sp.; Enterococcus faecium (GC 4556)): >128 µg/mL
- MIC Enterococcus faecium (GC 4557) (Enterococcus sp.; Enterococcus faecium (GC 4557)): 128 µg/mL (≈ 74.7 µM)
- MIC Enterococcus avium (GC 4558) (Enterococcus sp.): 128 µg/mL (≈ 74.7 µM)
- MIC Enterococcus faecalis (ATCC 29212) (Enterococcus sp.): >128 µg/mL
- MIC Enterococcus faecalis (GC 2242) (Enterococcus sp.): >128 µg/mL
- MIC Enterococcus faecalis (GC 2691) (Enterococcus sp.): >128 µg/mL
- MIC Enterococcus faecalis (GC 3059) (Enterococcus sp.): >128 µg/mL
- MIC Enterococcus faecalis (GC 4552) (Enterococcus sp.): >128 µg/mL
- MIC Enterococcus faecalis (GC 4553) (Enterococcus sp.): >128 µg/mL
- MIC Enterococcus faecalis (GC 4554) (Enterococcus sp.): >128 µg/mL
- MIC Enterococcus faecalis (GC 6189) (Enterococcus sp.): >128 µg/mL
- MIC Enterococcus faecium (GC 2243) (Enterococcus sp.): >128 µg/mL
- MIC Enterococcus faecium (GC 4556) (Enterococcus sp.): >128 µg/mL
- MIC Enterococcus faecium (GC 4557) (Enterococcus sp.): 128 µg/mL (≈ 74.7 µM)
- MIC Enterococcus faecalis (GC 2242) (Enterococcus sp.; strain GC 2242): >128 µg/mL
- MIC Enterococcus faecalis (GC 2691) (Enterococcus sp.; strain GC 2691): >128 µg/mL
- MIC Enterococcus faecalis (GC 3059) (Enterococcus sp.; strain GC 3059): >128 µg/mL

Compound: CC(C)=CCCC(C)=CCN=C1NCC(C(O)C2NC(=O)C(C(O)C3CNC(=N)N3)NC(=O)C(Cc3ccc(OC4OC(CO)C(OC5OC6COC7(OC6C(O)C5O)C5CC6CC(C5)CC7C6)C(O)C4O)cc3)NC(=O)C(C(C)c3ccccc3)NC(=O)CNC(=O)C(CO)NC2=O)N1C1OC(CO)C(O)C(O)C1O (stereo not shown) [Example 82]
- MIC Escherichia coli (ATCC 25922) (Escherichia coli): >128 µg/mL
- MIC Escherichia coli (GC 4559) (Escherichia coli): >128 µg/mL
- MIC Escherichia coli (GC 4560) (Escherichia coli): 4 µg/mL (≈ 2.56 µM)
- MIC Streptococcus agalactiae (GC 4564) (Streptococcus sp.): 0.5 µg/mL (≈ 0.32 µM)
- MIC Streptococcus pneumoniae (ATCC 6301) (Streptococcus sp.): 2 µg/mL (≈ 1.28 µM)
- MIC Streptococcus pneumoniae (GC 1894) (Streptococcus sp.): 0.25 µg/mL (≈ 0.16 µM)
- MIC Streptococcus pneumoniae (GC 4565) (Streptococcus sp.): 2 µg/mL (≈ 1.28 µM)
- MIC Streptococcus pyogenes (GC 4563) (Streptococcus sp.): 1 µg/mL (≈ 0.64 µM)
- MIC Streptococcus pneumoniae (ATCC 6301) (Streptococcus sp.; strain ATCC 6301): 2 µg/mL (≈ 1.28 µM)
- MIC Streptococcus pneumoniae (GC 1894) (Streptococcus sp.; strain GC 1894): 0.25 µg/mL (≈ 0.16 µM)
- MIC Streptococcus pyogenes (GC 4563) (Streptococcus sp.; strain GC 4563): 1 µg/mL (≈ 0.64 µM)
- MIC Streptococcus agalactiae (GC 4564) (Streptococcus sp.; strain GC 4564): 0.5 µg/mL (≈ 0.32 µM)
- MIC Streptococcus pneumoniae (GC 4565) (Streptococcus sp.; strain GC 4565): 2 µg/mL (≈ 1.28 µM)
- MIC Staphylococcus aureus (ATCC 29213) (Staphylococcus sp.): 8 µg/mL (≈ 5.12 µM)
- MIC Staphylococcus aureus (GC 1131) (Staphylococcus sp.): 16 µg/mL (≈ 10.2 µM)
- MIC Staphylococcus aureus (GC 3051) (Staphylococcus sp.): 8 µg/mL (≈ 5.12 µM)
- MIC Staphylococcus aureus (GC 3053) (Staphylococcus sp.): 16 µg/mL (≈ 10.2 µM)
- MIC Staphylococcus aureus (GC 4541) (Staphylococcus sp.): 8 µg/mL (≈ 5.12 µM)
- MIC Staphylococcus aureus (GC 4542) (Staphylococcus sp.): 16 µg/mL (≈ 10.2 µM)
- MIC Staphylococcus aureus-SMITH (GC 4543) (Staphylococcus sp.): 8 µg/mL (≈ 5.12 µM)
- MIC Staphylococcus aureus (GC 4544) (Staphylococcus sp.): 16 µg/mL (≈ 10.2 µM)
- MIC Staphylococcus aureus (GC 4545) (Staphylococcus sp.): 8 µg/mL (≈ 5.12 µM)
- MIC Staphylococcus haemolyticus (GC 4546) (Staphylococcus sp.): 4 µg/mL (≈ 2.56 µM)
- MIC Coagulase Negative Staphylococcus (GC 4547) (Staphylococcus sp.): 4 µg/mL (≈ 2.56 µM)
- MIC Coagulase Negative Staphylococcus (GC 4548) (Staphylococcus sp.): 4 µg/mL (≈ 2.56 µM)
- MIC Coagulase Negative Staphylococcus (GC 4549) (Staphylococcus sp.): 4 µg/mL (≈ 2.56 µM)
- MIC Coagulase Negative Staphylococcus (GC 4551) (Staphylococcus sp.): 8 µg/mL (≈ 5.12 µM)
- MIC Enterococcus avium (GC 4558) (Enterococcus sp.; Enterococcus avium (GC 4558)): 4 µg/mL (≈ 2.56 µM)
- MIC Enterococcus faecalis (ATCC 29212) (Enterococcus sp.; [1]): 16 µg/mL (≈ 10.2 µM)
- MIC Enterococcus faecalis (GC 4552) (Enterococcus sp.; [2]): 16 µg/mL (≈ 10.2 µM)
- MIC Enterococcus faecalis (GC 4553) (Enterococcus sp.; [3]): 8 µg/mL (≈ 5.12 µM)
- MIC Enterococcus faecalis (GC 4554) (Enterococcus sp.; [4]): 32 µg/mL (≈ 20.5 µM)
- MIC Enterococcus faecalis (GC 6189) (Enterococcus sp.; [5]): 16 µg/mL (≈ 10.2 µM)
- MIC Enterococcus faecium (GC 2243) (Enterococcus sp.; Enterococcus faecium (GC 2243)): 8 µg/mL (≈ 5.12 µM)
- MIC Enterococcus faecium (GC 4556) (Enterococcus sp.; Enterococcus faecium (GC 4556)): 16 µg/mL (≈ 10.2 µM)
- MIC Enterococcus faecium (GC 4557) (Enterococcus sp.; Enterococcus faecium (GC 4557)): 2 µg/mL (≈ 1.28 µM)
- MIC Enterococcus avium (GC 4558) (Enterococcus sp.): 4 µg/mL (≈ 2.56 µM)
- MIC Enterococcus faecalis (ATCC 29212) (Enterococcus sp.): 16 µg/mL (≈ 10.2 µM)
- MIC Enterococcus faecalis (GC 2242) (Enterococcus sp.): 16 µg/mL (≈ 10.2 µM)
- MIC Enterococcus faecalis (GC 2691) (Enterococcus sp.): 16 µg/mL (≈ 10.2 µM)
- MIC Enterococcus faecalis (GC 3059) (Enterococcus sp.): 16 µg/mL (≈ 10.2 µM)
- MIC Enterococcus faecalis (GC 4552) (Enterococcus sp.): 16 µg/mL (≈ 10.2 µM)
- MIC Enterococcus faecalis (GC 4553) (Enterococcus sp.): 8 µg/mL (≈ 5.12 µM)
- MIC Enterococcus faecalis (GC 4554) (Enterococcus sp.): 32 µg/mL (≈ 20.5 µM)
- MIC Enterococcus faecalis (GC 6189) (Enterococcus sp.): 16 µg/mL (≈ 10.2 µM)
- MIC Enterococcus faecium (GC 2243) (Enterococcus sp.): 8 µg/mL (≈ 5.12 µM)
- MIC Enterococcus faecium (GC 4556) (Enterococcus sp.): 16 µg/mL (≈ 10.2 µM)
- MIC Enterococcus faecium (GC 4557) (Enterococcus sp.): 2 µg/mL (≈ 1.28 µM)
- MIC Enterococcus faecalis (GC 2242) (Enterococcus sp.; strain GC 2242): 16 µg/mL (≈ 10.2 µM)
- MIC Enterococcus faecalis (GC 2691) (Enterococcus sp.; strain GC 2691): 16 µg/mL (≈ 10.2 µM)
- MIC Enterococcus faecalis (GC 3059) (Enterococcus sp.; strain GC 3059): 16 µg/mL (≈ 10.2 µM)
